Results on 14 compounds are retold here after publication PMC6886403, “Structure-Based and Molecular Modeling Studies for the Discovery of Cyclic Imides as Reversible Cruzain Inhibitors With Potent Anti-Trypanosoma cruzi Activity” (Frontiers in Chemistry, 2019).

Read-outs that look alike come from different tables or passages of the source.

The target of one data set is T1, cruzain (Trypanosoma cruzi, UniProt P25779).
T1 construct: inferred from Ni-NTA purification of the pro-enzyme; made in house; host or cells: Escherichia coli (M15)
Nature of the data set: Cruzain inhibition assay (cleavage of fluorogenic substrate Z-Phe-Arg-AMC). It is filed as biochemical. The following applies: for inhibition at 100 µM: at 100 μM inhibitor, mean of three measurements, read-out: Percent inhibition against cruzain; for IC50: mean ± SD of three individual experiments, at least six inhibitor concentrations in triplicate, 1.5 nM cruzain, 5.0 μM Z-Phe-Arg-AMC, pH 5.5. On the procedure: The catalytic activity of cruzain was monitored by cleavage of the fluorogenic substrate Z-Phe-Arg-aminomethyl coumarin (Z-Phe-Arg-AMC) as previously described (Ferreira et al., [2014]). The enzyme kinetics assays were performed in 0.1 M sodium acetate buffer (pH 5.5) with 5 mM dithiothreitol (DTT) and 0.01% Triton X-100. […] The enzyme reaction was monitored for 5 min at 30°C in 96-well black flat bottom plates, and the activity was calculated based on the initial rates compared with a control (DMSO). Wavelengths of 355 nm for excitation and 460 nm for emission were used. IC50 values were independently determined by determining rate measurements for at least six inhibitor concentrations, each evaluated in triplicate. To determine the mechanism of inhibition, eight substrate concentrations and four inhibitor concentrations were used, each in triplicate. The mechanism of inhibition was determined by Lineweaver-Burk plots. SigmaPlot 10.0 (Systat Software Inc., Erkrath, Germany) was used to determine the IC50 values.

The subject of data set [1] is T. cruzi intracellular amastigotes. The data set can be described thus: T. cruzi intracellular amastigote assay (Tulahuen lacZ strain, CPRG readout). It is filed as cell-based, Trypanosoma cruzi. The settings on record: for IC50: Trypanosoma cruzi, read-out: IC50 T. cruzi. On the procedure: In vitro assays against T. cruzi were performed as described previously (Ferreira et al., [2014]). The T. cruzi Tulahuen strain, which expresses the E. coli β-galactosidase gene lacZ (Buckner et al., [1996]), was provided by Frederick S. Buckner (University of Washington, Seattle, WA). Stock solutions of the synthesized compounds were prepared in 100% DMSO. Epimastigotes were grown in liver infusion tryptone (LIT) supplemented with 10% fetal calf serum (FCS), penicillin and streptomycin (28°C). Metacyclogenesis from epimastigotes to trypomastigotes was induced by incubation of the epimastigotes in Grace's insect medium (Sigma-Aldrich, St. Louis, MO) supplemented with 10% FCS (28°C). HFF-1 human fibroblasts were seeded at 2 × 10^3/well (80 μL) in 96-well tissue culture plates in RPMI 1640 without phenol red supplemented with 10% FCS and incubated overnight (37°C, 5% CO2). Next, trypomastigotes were added at 1.0 × 10^4/well (20 μL), and the plates were incubated (37°C, 5% CO2). After 24 h, 3-fold serial dilutions (50 μL) of the synthesized compounds were added at concentrations ranging from 0.1 to 100 μM, and the plates were incubated (37°C, 5% CO2). Each compound concentration was evaluated in triplicate. All plates included BZ (Sigma-Aldrich) as a positive control and untreated wells (100% growth) as a negative control. After 120 h, 50 μL of chlorophenol red β-D-galactopyranoside (CPRG, Sigma-Aldrich) and IGEPAL CA-630 (Sigma-Aldrich) (0.1%) was added to each well. The absorbance was measured at 570 nm in an automated microplate reader, and the data were transferred to SigmaPlot 10.0 (Systat Software Inc.) for IC50 value calculation.

A short description of data set [2]: Cytotoxicity in HFF-1 cells (MTS tetrazolium assay). The settings on record: human, HFF-1 fibroblasts, mean ± SD of two independent assays. It is filed as cell-based. On the procedure:
(§1) The cytotoxicities of the compounds against HFF-1 fibroblasts and HepG2 hepatocytes were evaluated using the MTS tetrazolium assay (Promega, Madison, WI) (Barltrop et al., [1991]). HFF-1 fibroblasts were seeded at 2 × 10^3/well in 96-well culture plates in RPMI 1640 without phenol red supplemented with 10% FCS and incubated overnight (37°C, 5% CO2). HepG2 hepatocytes were seeded at 6 × 10^3/well in 96-well culture plates in DMEM (Cultilab, Campinas SP) supplemented with 10% FCS and incubated overnight (37°C, 5% CO2). The compounds were added in 3-fold serial dilutions, and the plates were incubated at 37°C with 5% CO2. Each compound concentration was evaluated in triplicate. All plates included doxorubicin (Sigma-Aldrich, St. Louis, MO) as a positive control and untreated wells (100% growth) as a negative control. After 72 h, 20 μL of MTS was added, and the plates were incubated for 4 h. The absorbance was measured at 490 nm in an automated microplate reader, and the data were transferred to SigmaPlot 10.0 (Systat Software Inc., Erkrath, Germany) for IC50 value calculation. The percent of nonviable cells was determined and compared to the negative control wells (100% growth).

Data set [3] can be described thus: Cytotoxicity in HepG2 cells (MTS tetrazolium assay). It is filed as cell-based. The settings on record: human, HepG2 hepatocytes, mean ± SD of two independent assays. On the procedure: as §1
For orientation: Tetrazolium assays rely on reduction of a dye to a coloured formazan, in cell work by metabolically active cells.

On the set-up of data set [4]: method as in Pérez-Molina and Molina, 2018. The following applies: patients under treatment; ref Pérez-Molina and Molina, 2018; cited from earlier work.
The mark [5] stands for this setting: intracellular amastigotes, Tulahuen strain in HFF-1 fibroblasts, 120 h, mean ± SD of two experiments.

T1 sequence (P25779 123-337 limits assumed): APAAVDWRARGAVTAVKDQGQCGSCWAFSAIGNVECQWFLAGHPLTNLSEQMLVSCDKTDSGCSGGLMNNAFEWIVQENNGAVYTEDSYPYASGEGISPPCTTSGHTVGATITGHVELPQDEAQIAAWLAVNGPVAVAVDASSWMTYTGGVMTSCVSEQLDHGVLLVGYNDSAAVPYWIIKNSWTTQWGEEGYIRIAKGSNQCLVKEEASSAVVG

Regarding `CC(C)C[C@@H](C(=O)OCC(=O)Nc1ccc2ccccc2c1)N1C(=O)C2CC=CCC2C1=O` (stereo partly drawn) [3i, 2-(naphthalen-2-ylamino)-2-oxoethyl (2S)-2-(1,3-dioxo-1,3,3a,4,7,7a-hexahydro-2H-isoindol-2-yl)-4-methylpentanoate], at cruzain (Lineweaver-Burk plots, eight substrate and four inhibitor concentrations), the mechanism of inhibition result is “competitive”. In addition, the inhibition at 100 µM at cruzain turned out to be 79%. Moreover, the half-inhibitory concentration (IC50) on cruzain was determined as 2.1 ± 1.3 µM; in data set [1] (setting [5]) it was 32.8 ± 4.9 µM. In addition, the CC50 at 72 h in data set [2] was over 100 µM; in data set [3], 45 ± 8 µM.

On to `CC(C)CC(C(=O)OCC(=O)Nc1ccc(N(C)C(=O)OC(C)(C)C)cc1)N1C(=O)C2CC=CCC2C1=O` (stereo not shown) [3k], for which the inhibition at 100 µM at cruzain is 7%. Further, the IC50 in data set [1] (setting [5]) was determined as 3.9 ± 0.9 µM. For the same compound, the cytotoxic concentration (CC50) at 72 h in data set [2] is over 100 µM; in data set [3] it was over 64 µM.

Consider `COc1ccc(NC(=O)COC(=O)[C@H](CC(C)C)N2C(=O)C=CC2=O)cc1Cl` [10c, 2-((3-chloro-4-methoxyphenyl)amino)-2-oxoethyl (S)-2-(2,5-dioxo-2,5-dihydro-1H-pyrrol-1-yl)-4-methylpentanoate], for which the inhibition at 100 µM at cruzain was found to be 95%. The values for the IC50 (on cruzain; in data set [1] (setting [5])) were 2.3 ± 1 µM and 0.9 ± 0.3 µM, respectively. In addition, the CC50 at 72 h in data set [2] was determined as 12 ± 1 µM; in data set [3] it was 33 ± 5 µM.

In the case of `COc1ccc(NC(=O)COC(=O)[C@H](CC(C)C)N2C(=O)CCC2=O)cc1Cl` [10d, 2-((3-chloro-4-methoxyphenyl)amino)-2-oxoethyl (S)-2-(2,5-dioxopyrrolidin-1-yl)-4-methylpentanoate], the inhibition at 100 µM on cruzain came to 88%. The “decrease in potency against cruzain relative to 3a” value at cruzain (less active than 3a) worked out at 6 fold. The IC50 against cruzain was determined as 12 ± 1 µM; in data set [1] (setting [5]), 18.5 ± 3.1 µM. The CC50 at 72 h in data set [2] was over 100 µM; in data set [3], over 64 µM.

`COc1ccc(NC(=O)COC(=O)[C@H](CC(C)C)N2C(=O)C=C(C)C2=O)cc1Cl` [10e, 2-((3-chloro-4-methoxyphenyl)amino)-2-oxoethyl (S)-4-methyl-2-(3-methyl-2,5-dioxo-2,5-dihydro-1H-pyrrol-1-yl)pentanoate]: at cruzain, the inhibition at 100 µM came to 94%. Moreover, the IC50 at cruzain came out at 2.5 ± 0.6 µM; in data set [1] (setting [5]) it was 1.2 ± 0.3 µM. The 50% cytotoxic concentration (CC50) at 72 h was 4.8 ± 0.5 µM in data set [2] and 5 ± 1 µM in data set [3].

In the case of `COc1ccc(NC(=O)COC(=O)[C@H](CC(C)C)N2C(=O)C(Cl)=C(Cl)C2=O)cc1Cl` [10f, 2-((3-chloro-4-methoxyphenyl)amino)-2-oxoethyl (S)-2-(3,4-dichloro-2,5-dioxo-2,5-dihydro-1H-pyrrol-1-yl)-4-methylpentanoate], on cruzain (10f compared with 10c/10e), the “increase in potency against cruzain” value stood at 6 fold. Also, the inhibition at 100 µM on cruzain was 100%. Moreover, in data set [1] (setting [5]), the IC50 turned out to be 2 ± 0.7 µM. Also, the CC50 at 72 h was 33 ± 9 µM in data set [2] and over 64 µM in data set [3].

For the compound `COc1ccc(NC(=O)COC(=O)[C@H](Cc2ccccc2)N2C(=O)C=CC2=O)cc1Cl` [10j, 2-((3-chloro-4-methoxyphenyl)amino)-2-oxoethyl (S)-2-(2,5-dioxo-2,5-dihydro-1H-pyrrol-1-yl)-3-phenylpropanoate], at cruzain, the inhibition at 100 µM was found to be 97%. The IC50 against cruzain was 0.6 ± 0.1 µM; in data set [1] (setting [5]) it was 1 ± 0.3 µM. Also, the “increase in potency against cruzain relative to 3a” value on cruzain (more active than 3a) came to 4 fold. In addition, the “trypanocidal activity relative to BZ” value in data set [1] (higher than that of BZ) came to 3 fold. The values for the cytotoxic concentration (CC50) at 72 h in data set [2] and in data set [3] were 15.7 ± 0.8 µM and 67 ± 8 µM, respectively.

For the compound `COc1ccc(NC(=O)COC(=O)[C@H](CC(C)C)N2CCCCC2)cc1Cl` [10l, 2-((3-chloro-4-methoxyphenyl)amino)-2-oxoethyl (S)-4-methyl-2-(piperidin-1-yl)pentanoate], the inhibition at 100 µM on cruzain is 10%. In addition, in data set [1] (setting [5]), the IC50 came to 11.6 ± 2.4 µM. In addition, the “activity against T. cruzi (in words)” value in data set [1] (intracellular amastigotes) was “moderately active”. For the same compound, the CC50 at 72 h is over 100 µM in data set [2] and over 64 µM in data set [3].

On to `COc1ccc(NC(=O)COC(=O)[C@H](CC(C)C)N2CCOCC2)cc1Cl` [10m, 2-((3-chloro-4-methoxyphenyl)amino)-2-oxoethyl (S)-4-methyl-2-morpholinopentanoate], for which the inhibition at 100 µM on cruzain amounted to 14%. In data set [1] (setting [5]), the IC50 was found to be 1.8 ± 0.4 µM. In addition, the “activity against T. cruzi (in words)” value in data set [1] (intracellular amastigotes) is “remarkably active”. The CC50 at 72 h in data set [2] was over 100 µM; in data set [3] it was over 64 µM.

Turning to `COc1ccc(NC(=O)COC(=O)[C@H](CC(C)C)N2CCN(C(=O)OC(C)(C)C)CC2)cc1Cl` [10n, tert-butyl (S)-4-(1-(2-((3-chloro-4-methoxyphenyl)amino)-2-oxoethoxy)-4-methyl-1-oxopentan-2-yl)piperazine-1-carboxylate], the inhibition at 100 µM on cruzain turned out to be 8%. Also, the IC50 in data set [1] (setting [5]) is 1.6 ± 0.5 µM. The “activity against T. cruzi (in words)” value in data set [1] (intracellular amastigotes) was “remarkably active”. Moreover, the CC50 at 72 h in data set [2] was determined as 32 ± 5 µM; in data set [3] it was 27 ± 2 µM.

For `COc1ccc(NC(=O)COC(=O)[C@H](CC(C)C)N2CCNCC2)cc1Cl.Cl` [10o, 2-((3-chloro-4-methoxyphenyl)amino)-2-oxoethyl (S)-4-methyl-2-(piperazin-1-yl)pentanoate hydrochloride], the inhibition at 100 µM on cruzain came out at 35%. Further, the IC50 in data set [1] (setting [5]) came to 1.7 ± 0.5 µM. In data set [1] (intracellular amastigotes), the “activity against T. cruzi (in words)” value is “remarkably active”. For the same compound, the CC50 at 72 h worked out at 32 ± 3 µM in data set [2] and 52 ± 7 µM in data set [3].

For `O=C(Cn1ccnc1[N+](=O)[O-])NCc1ccccc1` [BZ, benznidazole, reference compound], the IC50 in data set [1] (TULAHUEN, HFF-1, 120 h) was 3 ± 0.6 µM. Besides, the CC50 at 72 h was over 100 µM in data set [2] and over 64 µM in data set [3]. Further, the “patients with severe adverse effects” value in data set [4] is recorded as “up to 40%”.

As for `COc1cccc2c1C(=O)c1c(O)c3c(c(O)c1C2=O)C[C@@](O)(C(=O)CO)C[C@@H]3O[C@H]1C[C@H](N)[C@H](O)[C@H](C)O1` [Doxorubicin, doxorubicin, reference compound], the CC50 at 72 h was 0.21 ± 0.09 µM in data set [2] and 0.4 ± 0.1 µM in data set [3].

As for `COc1ccc(NCCOC(=O)C(CC(C)C)N2C(=O)C3CC=CCC3C2=O)cc1Cl` (stereo not shown) [compound 7, 2-((3-chloro-4-methoxyphenyl)amino)ethyl 2-(1,3-dioxo-1,3,3a,4,7,7a-hexahydro-2H-isoindol-2-yl)-4-methylpentanoate], at cruzain, the “activity against cruzain (in words)” value was “inactive” and the inhibition at 100 µM came out at 11%. Further, in data set [1] (setting [5]), the concentration for half-maximal inhibition (IC50) turned out to be 1.5 ± 0.4 µM. Moreover, the “activity against T. cruzi (in words)” value in data set [1] (intracellular amastigotes) is “active”. In addition, the CC50 at 72 h in data set [2] was over 100 µM. In data set [3], this compound showed a cytotoxic concentration (CC50) at 72 h of 63 ± 8 µM.

For orientation: inhibition means the share of the control response that was lost under treatment. Usually IC50 stands for the concentration that inhibits the measured activity by half. By CC50 is commonly meant the concentration at which the toxic effect on the cells reaches its halfway point. Higher therefore signals lower toxicity to the cells.
